This note sets out measurements from patent US11266643B2, “Triaryl compounds for treatment of PD-L1 diseases” (CHEMOCENTRYX, INC., priority 2019, dated 2022).

pIC50: −log10 of the molar value.

In this assay the target is human PD-L1 (Homo sapiens (Human), UniProt Q9NZQ7). Nature of the assay: Enzyme-Linked Immunosorbent Assay (ELISA), PD-1/PD-L1 binding. Summed up:
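Plates coated with […] human PD-L1 overnight at 4° C, blocked, then 1:5 serial compound dilutions added with human PD-1 […] 0.31 μg/mL for 1 h at 37° C. Bound PD-1 detected with streptavidin-HRP and TMB (20 min, 37° C); absorbance read at 450 nm after H2SO4 stop.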
(In general: In an ELISA, binding on a coated surface is turned into a signal by an enzyme label.)

Setting [1] is: PD-1/PD-L1 ELISA, human PD-L1 coated plates, Table 1.
The mark [2] stands for this setting: human PD-1/PD-L1 ELISA, plates coated with human PD-L1.
Where [3] appears, read: plate-coated human PD-L1, biotinylated Human PD-1, absorbance at 450 nm.

Chain of human PD-L1 (Q9NZQ7 19-239): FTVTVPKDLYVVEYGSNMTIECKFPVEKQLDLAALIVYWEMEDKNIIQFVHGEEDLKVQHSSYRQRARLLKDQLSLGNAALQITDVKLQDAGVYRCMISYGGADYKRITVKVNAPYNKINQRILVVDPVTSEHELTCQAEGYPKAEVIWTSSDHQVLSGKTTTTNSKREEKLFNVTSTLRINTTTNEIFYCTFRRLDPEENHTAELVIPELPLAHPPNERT

`COc1cc(-c2cccc(-c3cccc(NC(=O)c4cccn(C)c4=O)c3C)c2C)cc(F)c1CNCCCC(=O)O` [Example 1.279] gave a pIC50 under setting [1] of over 8.00. On to `COc1cc(-c2cccc(-c3cccc(NC(=O)c4nc5c(s4)CNCC5)c3F)c2C)cc(F)c1CNCCCC(=O)O` [Example 1.403], for which the pIC50 under setting [2] was over 8.00. `COc1cc(-c2cccc(-c3cccc(NC(=O)c4c[nH]c(=O)n(C)c4=O)c3C)c2C)cc(F)c1CN1CC(O)C1` [Example 1.271] gave a pIC50 under setting [1] of over 8.00.

Take `CCOc1cc(-c2cccc(-c3cccc(NC(=O)c4cn(C)c(=O)n(C)c4=O)c3Cl)c2Cl)cc(F)c1CN[C@@H]1CCOC[C@@H]1O` [Example 2.037]: the pIC50 under setting [3] is over 8.00. In the case of `COc1cc(-c2cccc(-c3cccc(NC(=O)C4CCN(CCO)CC4)c3C)c2C)cc(F)c1CN` [Example 1.393], the pIC50 under setting [1] was 6.00 to 8.00. `COc1cc(-c2cccc(-c3cccc(NC(=O)c4cn(C)c(=O)n(C)c4=O)c3Cl)c2Cl)cc(F)c1CN[C@H]1CCOC[C@H]1OC` [Example 2.025] showed a pIC50 under setting [3] of over 8.00. As for `COc1cc(-c2cccc(-c3cccc(NC(=O)c4cn(C)c(=O)n(C)c4=O)c3C)c2Cl)cnc1CN[C@@H]1CCOC[C@@H]1O` [Example 2.049], under setting [3], the pIC50 was over 8.00.

As to `COc1cc(-c2cccc(-c3cccc(NC(=O)c4cn(C)c(=O)n(C)c4=O)c3Cl)c2Cl)cc(F)c1CN[C@H]1CNC(=O)C1` [Example 2.081], the pIC50 under setting [3] is over 8.00.

Take `COc1cc(-c2cccc(-c3cccc(NC(=O)c4cn(C)c(=O)n(C)c4=O)c3Cl)c2F)cc(F)c1CNC[C@@H]1CCC(=O)N1` [Example 2.079]: under setting [3], the pIC50 was over 8.00. In the case of `COc1cc(-c2cccc(-c3cccc(NC(=O)c4cncn(C)c4=O)c3C)c2C)cc(F)c1CN(C)CC(C)(C)O` [Example 1.166], under setting [2], the pIC50 is 6.00 to 8.00.

Regarding `COc1cc(-c2cccc(-c3cccc(NC(=O)c4cn(C)c(=O)n(C)c4=O)c3Cl)c2Cl)cc(F)c1CN1CC(C)(C(=O)O)C1` [Example 2.008], the pIC50 under setting [3] is over 8.00. Under setting [1], `COc1cc(-c2cccc(-c3cccc(NC(=O)c4ccc(CC(N)=O)cn4)c3C)c2C)cc(F)c1CN` [Example 1.310] gave a negative-log IC50 (pIC50) of over 8.00.

The compound `COc1cc(-c2cccc(-c3cccc(NC(=O)c4cn(C)c(=O)n(C)c4=O)c3Cl)c2Cl)cc(F)c1CN[C@H]1COC[C@H]1O` [Example 2.074] had a pIC50 under setting [3] of over 8.00. Turning to `COc1cc(-c2cccc(-c3cccc(NC(=O)c4cccn(C)c4=O)c3C)c2C)cc(F)c1CNCC(C)(C)O` [Example 1.281], the pIC50 under setting [1] is over 8.00. Regarding `COc1cc(-c2cccc(-c3cccc(NC(=O)[C@H]4COCCN4)c3C)c2C)cc(F)c1CN` [Example 1.319], the negative logarithm of the IC50 (pIC50) under setting [1] is 6.00 to 8.00.

Take `COc1cc(-c2cccc(-c3cccc(Nc4nccc5nccnc45)c3C)c2C)cc(F)c1CN[C@@H]1CCOC[C@@H]1O` [Example 1.040]: under setting [2], the pIC50 is over 8.00. With `COc1cc(-c2cccc(-c3cccc(NC(=O)c4cccn(C)c4=O)c3C)c2C)cc(F)c1CNC1CCOC1` (stereo not drawn) [Example 1.168], the negative logarithm of the IC50 (pIC50) under setting [2] is over 8.00. On to `COc1cc(-c2cccc(-c3cccc(NC(=O)c4cn(C)c(=O)n(C)c4=O)c3C)c2Cl)cc(F)c1CN1CCC(C)(C(=O)O)CC1` [Example 2.013], for which the pIC50 under setting [3] was over 8.00. In the case of `COc1cc(-c2cccc(-c3cccc(NC(=O)c4c[nH]c(=O)n(C)c4=O)c3C)c2C)cc(F)c1CN[C@H](C)CO` [Example 1.225], under setting [1], the pIC50 is over 8.00.

`COc1cc(-c2cccc(-c3cccc(NC(=O)c4cn(C)c(=O)n(C)c4=O)c3C)c2C)cc(F)c1CN[C@H]1CCOC[C@@H]1O` [Example 2.096] showed a pIC50 under setting [3] of over 8.00. In turn, `COc1cc(-c2cccc(-c3cccc(NC(=O)c4cn(C)c(=O)n(C)c4=O)c3Cl)c2C)cc(F)c1CN[C@@H]1CCOC[C@H]1O` [Example 2.078] gave a pIC50 under setting [3] of over 8.00. In turn, `COc1cc(-c2cccc(-c3cccc(NC(=O)c4cn(C)c(=O)n(C)c4=O)c3Cl)c2F)cc(F)c1CN[C@@H]1CCOC[C@@H]1O` [Example 2.091] had a pIC50 under setting [3] of over 8.00.

As for `COc1cc(-c2cccc(-c3cccc(NC(=O)c4cn(C)c(=O)n(C)c4=O)c3C)c2Cl)cc(F)c1CNC(C)C` [Example 2.064], the pIC50 under setting [3] was over 8.00.

For the compound `COc1cc(-c2cccc(-c3cccc(NC(=O)c4cn(C)c(=O)n(C)c4=O)c3C)c2Cl)cc(F)c1CN[C@H]1CCOC[C@H]1O` [Example 2.104], the pIC50 under setting [3] was over 8.00. Compound `COc1cc(-c2cccc(-c3cccc(NC(=O)c4cnc(CC(N)=O)cn4)c3C)c2C)cc(F)c1CN` [Example 1.307] showed a pIC50 under setting [1] of over 8.00. Under setting [2], `COc1cc(-c2cccc(-c3cccc(Nc4nccc5c4C(=O)N(C)CC5)c3C)c2C)cc(F)c1CN[C@@H]1CCC[C@@H]1O` [Example 1.191] showed a pIC50 of over 8.00. With `COc1cc(-c2cccc(-c3cccc(NC(=O)c4ccccn4)c3C)c2C#N)cc(F)c1CN1CC(C(=O)O)C1` [Example 1.356], the pIC50 under setting [1] was 6.00 to 8.00. Turning to `COc1cc(-c2cccc(-c3cccc(NC(=O)c4cn(C)c(=O)n(C)c4=O)c3C)c2C)cc(F)c1CN[C@H]1CCC(=O)NC1` [Example 1.110], the pIC50 under setting [2] was over 8.00. Under setting [3], `COc1cc(-c2cccc(-c3cccc(NC(=O)c4c[nH]c(=O)n(C)c4=O)c3C)c2Cl)cc(F)c1CN[C@H]1CCOC[C@H]1O` [Example 2.034] gave a pIC50 of over 8.00. Compound `COc1cc(-c2cccc(-c3cccc(NC(=O)c4cn(C)c(=O)n(C)c4=O)c3C)c2Cl)cc(F)c1CN1CC[C@@H](C(=O)O)C1` [Example 2.021] showed a negative-log IC50 (pIC50) under setting [3] of over 8.00.

Compound `COc1cc(-c2cccc(-c3cccc(Nc4nccc5nccnc45)c3C)c2C)cc(F)c1CNCC(=O)O` [Example 1.240] gave a pIC50 under setting [1] of over 8.00.

Under setting [2], `COc1cc(-c2cccc(-c3cccc(NC(=O)c4c[nH]c(=O)n(C)c4=O)c3C)c2C)cc(F)c1CN[C@H]1CCOC1` [Example 1.050] gave a pIC50 of over 8.00.

Compound `COc1cc(-c2cccc(-c3cccc(Nc4nccc5c4C(=O)N(C)CC5)c3C)c2C)cc(F)c1CNCCO` [Example 1.215] had a pIC50 under setting [1] of 6.00 to 8.00.

`COc1cc(-c2cccc(-c3cccc(NC(=O)c4nn(C)c(=O)n(C)c4=O)c3C)c2C)cc(F)c1CN[C@H]1CCC(=O)NC1` [Example 1.089] had a pIC50 under setting [2] of over 8.00. As to `COc1cc(-c2cccc(-c3cccc(NC(=O)c4cn(C)c(=O)n(C)c4=O)c3C)c2Cl)cc(F)c1CN[C@H]1COC[C@H]1O` [Example 2.093], the negative-log IC50 (pIC50) under setting [3] is over 8.00. The compound `COc1cc(-c2cccc(-c3cccc(Nc4nccc5nccnc45)c3Cl)c2Cl)cc(F)c1CN[C@@H]1COC[C@@H]1O` [Example 2.110] gave a pIC50 under setting [3] of over 8.00. `COc1cc(-c2cccc(-c3cccc(NC(=O)c4ccncn4)c3C)c2C)cc(F)c1CNCCCC(=O)O` [Example 1.345]: the pIC50 under setting [1] was over 8.00. For the compound `COc1cc(-c2cccc(-c3cccc(NC(=O)c4c[nH]c(=O)n(C)c4=O)c3C)c2Cl)cc(F)c1CN[C@@H]1CNC(=O)C1` [Example 2.033], under setting [3], the pIC50 is over 8.00. `COc1cc(-c2cccc(-c3cccc(NC(=O)c4c[nH]c(=O)n(C)c4=O)c3C)c2C)cc(F)c1CN[C@@H](C)CO` [Example 1.226] had a pIC50 under setting [1] of over 8.00. For the compound `COc1cc(-c2cccc(-c3cccc(NC(=O)C4CCCCO4)c3C)c2C)cc(F)c1CN` (stereo not drawn) [Example 1.363], under setting [1], the pIC50 was 6.00 to 8.00.

`COc1cc(-c2cccc(-c3cccc(NC(=O)c4cccn(C)c4=O)c3C)c2C)cc(F)c1CNC[C@@H]1CCC(=O)N1` [Example 1.157] had a pIC50 under setting [2] of over 8.00. For the compound `COc1cc(-c2cccc(-c3cccc(Nc4nccc5nccnc45)c3C)c2Cl)cc(F)c1CN[C@@H]1COC[C@@H]1O` [Example 2.115], the pIC50 under setting [3] is over 8.00.

In general, pIC50 refers to the negative decadic logarithm of the IC50, by convention in mol/L. Low values mean a high IC50, high ones a low IC50.
